Reference: ChEMBL document CHEMBL1201861, “Genomics of Drug Sensitity in Cancer screening data, Wellcome Trust Sanger Institute”
Structures can show the parent of a compound that is named as a salt.

Tests used:
Assay in all cases: cells
Type in all cases: functional, cell-based, Homo sapiens
KNS-81-FD = conditions: Homo sapiens, KNS-81-FD;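 note: growth inhibition of KNS-81-FD cells, read out with a cell viability assay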
Description: SANGER: Inhibition of human KNS-81-FD cell growth in a cell viability assay.

SNU1 = conditions: Homo sapiens, SNU1;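 note: growth inhibition of human NCI-SNU-1 cells, measured with a cell viability assay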
Description: SANGER: Inhibition of human NCI-SNU-1 cell growth in a cell viability assay.

COLO-668 = conditions: Homo sapiens, COLO-668
Description: SANGER: Inhibition of human COLO-668 cell growth in a cell viability assay.

VA-ES-BJ = conditions: Homo sapiens, VA-ES-BJ;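 note: growth inhibition of the VA-ES-BJ cell line, read out by a cell viability assay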
Description: SANGER: Inhibition of human VA-ES-BJ cell growth in a cell viability assay.

BB49-HNC = conditions: Homo sapiens, BB49-HNC;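 note: cell viability assay read-out, reported as inhibition of BB49-HNC cell growth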
Description: SANGER: Inhibition of human BB49-HNC cell growth in a cell viability assay.

KLE = conditions: Homo sapiens, KLE;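 note: growth inhibition of human KLE cells, read out with a cell viability assay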
Description: SANGER: Inhibition of human KLE cell growth in a cell viability assay.

TE-12 = conditions: Homo sapiens, TE-12;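 note: growth inhibition of TE-12 cells, read out by a cell viability assay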
Description: SANGER: Inhibition of human TE-12 cell growth in a cell viability assay.

COLO-684 = conditions: Homo sapiens, COLO-684
Description: SANGER: Inhibition of human COLO-684 cell growth in a cell viability assay.

COLO-800 = conditions: Homo sapiens, COLO-800;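 note: growth inhibition of COLO-800 cells, read out with a cell viability assay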
Description: SANGER: Inhibition of human COLO-800 cell growth in a cell viability assay.

SW982 = conditions: Homo sapiens, SW982;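 note: growth inhibition of SW982 cells, read out with a cell viability assay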
Description: SANGER: Inhibition of human SW982 cell growth in a cell viability assay.

CP66-MEL = conditions: Homo sapiens, CP66-MEL;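 note: growth inhibition of CP66-MEL cells determined in a cell viability assay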
Description: SANGER: Inhibition of human CP66-MEL cell growth in a cell viability assay.

NCI-H510A = conditions: Homo sapiens, NCI-H510A;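 note: growth inhibition of NCI-H510A cells, read out with a cell viability assay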
Description: SANGER: Inhibition of human NCI-H510A cell growth in a cell viability assay.

RPMI-8866 = conditions: Homo sapiens, RPMI-8866
Description: SANGER: Inhibition of human RPMI-8866 cell growth in a cell viability assay.

DSH1 = conditions: Homo sapiens, DSH1;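 note: growth inhibition of human DSH1 cells, measured with a cell viability readout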
Description: SANGER: Inhibition of human DSH1 cell growth in a cell viability assay.

TGBC24TKB = conditions: Homo sapiens, TGBC24TKB;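 note: growth inhibition of human TGBC24TKB cells, read out with a cell viability assay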
Description: SANGER: Inhibition of human TGBC24TKB cell growth in a cell viability assay.

ES7 = conditions: Homo sapiens, ES7;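 note: growth inhibition of cultured human ES7 cells, read out as cell viability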
Description: SANGER: Inhibition of human ES7 cell growth in a cell viability assay.

no-11 = conditions: Homo sapiens;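 note: growth inhibition of human NO-11 cells, read out with a cell viability assay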
Description: SANGER: Inhibition of human no-11 cell growth in a cell viability assay.

SNB-75 = conditions: Homo sapiens, SNB-75;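 note: cell viability assay measuring growth inhibition of human SNB-75 cells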
Description: SANGER: Inhibition of human SNB75 cell growth in a cell viability assay.

ML-2 = conditions: Homo sapiens, ML-2;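 note: growth inhibition of ML-2 cells, measured with a cell viability readout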
Description: SANGER: Inhibition of human ML-2 cell growth in a cell viability assay.

SCC-15 = conditions: Homo sapiens, SCC-15;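 note: growth inhibition of SCC-15 cells, read out with a cell viability assay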
Description: SANGER: Inhibition of human SCC-15 cell growth in a cell viability assay.

LS-123 = conditions: Homo sapiens, LS-123
Description: SANGER: Inhibition of human LS-123 cell growth in a cell viability assay.

HDLM-2 = conditions: Homo sapiens, HDLM-2;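 note: cell viability assay measuring suppression of HDLM-2 proliferation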
Description: SANGER: Inhibition of human HDLM-2 cell growth in a cell viability assay.

EC-GI-10 = conditions: Homo sapiens, EC-GI-10
Description: SANGER: Inhibition of human EC-GI-10 cell growth in a cell viability assay.

EW-18 = conditions: Homo sapiens, EW-18;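 note: growth inhibition of EW-18 cells, read out by a cell viability assay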
Description: SANGER: Inhibition of human EW-18 cell growth in a cell viability assay.

NCI-H1648 = conditions: Homo sapiens, NCI-H1648;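 note: cell viability assay measuring inhibition of NCI-H1648 cell growth, from the Sanger screening data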
Description: SANGER: Inhibition of human NCI-H1648 cell growth in a cell viability assay.

GB-1 = conditions: Homo sapiens, GB-1;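 note: growth of GB-1 cells judged by a viability assay, IC50 marks the concentration inhibiting growth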
Description: SANGER: Inhibition of human GB-1 cell growth in a cell viability assay.

697 = conditions: Homo sapiens
Description: SANGER: Inhibition of human 697 cell growth in a cell viability assay.

LXF-289 cell line = conditions: Homo sapiens, LXF-289
Description: SANGER: Inhibition of human LXF-289 cell growth in a cell viability assay.

NKM-1 = conditions: Homo sapiens, NKM-1;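 note: growth inhibition of NKM-1 cells, read out with a cell viability assay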
Description: SANGER: Inhibition of human NKM-1 cell growth in a cell viability assay.

ONS-76 = conditions: Homo sapiens, ONS-76;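 note: growth inhibition of human ONS-76 cells, read out with a cell viability assay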
Description: SANGER: Inhibition of human ONS-76 cell growth in a cell viability assay.

SF-126 = conditions: Homo sapiens, SF-126;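 note: growth inhibition of human SF126 cells, read out with a cell viability assay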
Description: SANGER: Inhibition of human SF126 cell growth in a cell viability assay.

EOL1 = conditions: Homo sapiens, EOL1;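 note: growth inhibition of EoL-1 cells, read out by a cell viability assay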
Description: SANGER: Inhibition of human EoL-1-cell cell growth in a cell viability assay.

ES1 = conditions: Homo sapiens, ES1;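 note: growth inhibition of ES1 cells, read out with a cell viability assay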
Description: SANGER: Inhibition of human ES1 cell growth in a cell viability assay.

SK-UT-1 = conditions: Homo sapiens, SK-UT-1;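 note: growth inhibition of SK-UT-1 cells, measured by a cell viability assay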
Description: SANGER: Inhibition of human SK-UT-1 cell growth in a cell viability assay.

U-266 = conditions: Homo sapiens, U-266
Description: SANGER: Inhibition of human U-266 cell growth in a cell viability assay.

TGBC1TKB = conditions: Homo sapiens, TGBC1TKB;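 note: growth inhibition of TGBC1TKB cells, read out by a cell viability assay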
Description: SANGER: Inhibition of human TGBC1TKB cell growth in a cell viability assay.

GT3TKB = conditions: Homo sapiens, GT3TKB;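 note: growth inhibition of the cell line, read out with a cell viability assay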
Description: SANGER: Inhibition of human GT3TKB cell growth in a cell viability assay.

SW872 = conditions: Homo sapiens, SW872;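 note: growth inhibition of SW872 cells, read out by a viability assay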
Description: SANGER: Inhibition of human SW872 cell growth in a cell viability assay.

MHH-NB-11 = conditions: Homo sapiens, MHH-NB-11;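 note: growth inhibition of human MHH-NB-11 cells, read out by a cell viability assay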
Description: SANGER: Inhibition of human MHH-NB-11 cell growth in a cell viability assay.

A253 cell line = conditions: Homo sapiens, A253;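 note: growth inhibition of A253 cells, read out with a cell viability assay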
Description: SANGER: Inhibition of human A253 cell growth in a cell viability assay.

KMOE-2 = conditions: Homo sapiens, KMOE-2;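 note: growth inhibition of human KMOE-2 cells, read out with a cell viability assay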
Description: SANGER: Inhibition of human KMOE-2 cell growth in a cell viability assay.

LAN-6 = conditions: Homo sapiens, LAN-6;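 note: growth inhibition of LAN-6 cells, determined with a cell viability assay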
Description: SANGER: Inhibition of human LAN-6 cell growth in a cell viability assay.

COLO-829 = conditions: Homo sapiens, COLO-829
Description: SANGER: Inhibition of human COLO-829 cell growth in a cell viability assay.

MHH-PREB-1 = conditions: Homo sapiens, MHH-PREB-1;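 note: cell viability assay measuring inhibition of proliferation of human MHH-PREB-1 cells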
Description: SANGER: Inhibition of human MHH-PREB-1 cell growth in a cell viability assay.

TE-8 = conditions: Homo sapiens, TE-8;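 note: growth inhibition of TE-8 cells, measured with a cell viability readout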
Description: SANGER: Inhibition of human TE-8 cell growth in a cell viability assay.

LB1047-RCC = conditions: Homo sapiens, LB1047-RCC;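 note: inhibition of cell growth, determined with a cell viability assay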
Description: SANGER: Inhibition of human LB1047-RCC cell growth in a cell viability assay.

NB69 = conditions: Homo sapiens, NB69;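 note: growth inhibition of NB69 cells, determined by a cell viability assay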
Description: SANGER: Inhibition of human NB69 cell growth in a cell viability assay.

CTV-1 = conditions: Homo sapiens, CTV-1;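 note: growth inhibition of the cell line, read out with a cell viability assay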
Description: SANGER: Inhibition of human CTV-1 cell growth in a cell viability assay.

CCRF-CEM = conditions: Homo sapiens, CCRF-CEM;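 note: inhibition of CCRF-CEM cell growth, measured by a cell viability assay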
Description: SANGER: Inhibition of human CCRF-CEM cell growth in a cell viability assay.

COC1=CC(c2cc3ccccc3[nH]2)=N/C1=C\c1[nH]c(C)cc1C [OBATOCLAX MESYLATE]
IC50 (KNS-81-FD): 367 nM
IC50 (SNU1): 121 nM
IC50 (COLO-668): 1330 nM
IC50 (VA-ES-BJ): 700 nM
IC50 (BB49-HNC): 1340 nM
IC50 (KLE): 1660 nM
IC50 (TE-12): 333 nM
IC50 (COLO-684): 656 nM
IC50 (COLO-800): 5190 nM
IC50 (SW982): 445 nM
IC50 (CP66-MEL): 871 nM
IC50 (NCI-H510A): 772 nM
IC50 (RPMI-8866): 133 nM
IC50 (DSH1): 4470 nM
IC50 (TGBC24TKB): 3680 nM
IC50 (ES7): < 62.5 nM
IC50 (no-11): 1510 nM
IC50 (SNB-75): 557 nM
IC50 (ML-2): 229 nM
IC50 (SCC-15): 49 nM
IC50 (LS-123): 87.2 nM
IC50 (HDLM-2): 420 nM
IC50 (EC-GI-10): > 16000 nM
IC50 (EW-18): 130 nM
IC50 (NCI-H1648): 113 nM
IC50 (GB-1): 164 nM
IC50 697: 53.2 nM
IC50 (LXF-289 cell line): 260 nM
IC50 (NKM-1): < 62.5 nM
IC50 (ONS-76): 20.4 nM
IC50 (SF-126): 273 nM
IC50 (EOL1): 115 nM
IC50 (ES1): 48.9 nM
IC50 (SK-UT-1): 136 nM
IC50 (U-266): 311 nM
IC50 (TGBC1TKB): 620 nM
IC50 (GT3TKB): 163 nM
IC50 (SW872): 160 nM
IC50 (MHH-NB-11): 3440 nM
IC50 (A253 cell line): 575 nM
IC50 (KMOE-2): 90.4 nM
IC50 (LAN-6): 1900 nM
IC50 (COLO-829): 720 nM
IC50 (MHH-PREB-1): < 62.5 nM
IC50 (TE-8): 98.9 nM
IC50 (LB1047-RCC): 358 nM
IC50 (NB69): 15.7 nM
IC50 (CTV-1): 75.2 nM
IC50 (CCRF-CEM): 771 nM
